Molecular target: T1, human apelin receptor (APJ, APLNR) (Homo sapiens, UniProt P35414)
T1 construct: host or cells: Chinese hamster ovary (CHO) cells, stably integrated receptor
T1 sequence (P35414 1-380): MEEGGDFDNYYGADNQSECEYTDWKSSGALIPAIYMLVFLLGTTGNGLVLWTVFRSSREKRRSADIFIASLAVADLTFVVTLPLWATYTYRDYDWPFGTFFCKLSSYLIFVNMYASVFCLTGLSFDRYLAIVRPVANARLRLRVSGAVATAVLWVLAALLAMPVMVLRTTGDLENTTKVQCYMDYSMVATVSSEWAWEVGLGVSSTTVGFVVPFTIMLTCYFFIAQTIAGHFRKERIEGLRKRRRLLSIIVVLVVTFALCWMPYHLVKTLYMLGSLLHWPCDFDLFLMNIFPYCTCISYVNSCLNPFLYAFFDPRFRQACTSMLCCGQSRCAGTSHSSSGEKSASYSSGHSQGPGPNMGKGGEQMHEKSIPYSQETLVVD
Assay: cell-based cAMP assay (TR-FRET) in Chinese hamster ovary cells expressing the apelin receptor
Conditions: EC50 = 50% of control (apelin-13, 1 nM) response; cAMP in CHO cells, 0.5 h incubation; read-out: Potency Category
How it was run: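 CHO cells stably expressing human APJ were forskolin-stimulated, then exposed to compound (0.0-100 μM, ≤1% DMSO) for 0.5 h. Lysate cAMP read by competitive TR-FRET immunoassay; EC50 and efficacy expressed relative to 1 nM apelin-13, four-parameter fit over ≥10 concentrations.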

EC50, > 500 nM:
CC(C)c1cc(C(=O)O)nc2c(-c3ccccc3)cnn12 [Compound 7, 7-(methylethyl)-3-phenyl-8-hydropyrazolo[1,5-a]pyrimidine-5-carboxylic acid]
Cc1cccc(C)c1-c1c(C)nn2c(C3=CCCC3)cc(C(=O)O)nc12 [Compound 127, 3-(2,6-dimethylphenyl)-7-cyclopent-1-enyl-2-methyl-8-hydropyrazolo[1,5-a]pyrimidine-5-carboxylic acid]
Cc1cccc(C)c1-c1c(C)nn2c(C(C)C)cc(N)nc12 [Compound 110, 3-(2,6-dimethylphenyl)-2-methyl-7-(methylethyl)-8-hydropyrazolo[1,5-a]pyrimidine-5-ylamine]
CCOC(=O)c1cc(N2CCOCC2)n2nc(C)c(-c3c(C)cccc3C)c2n1 [Compound 97, ethyl 3-(2,6-dimethylphenyl)-2-methyl-7-morpholin-4-yl-8-hydropyrazolo[1,5-a]pyrimidine-5-carboxylate]
COC(=O)c1cc(N2CCCC2)n2nc(C)c(-c3c(C)cccc3C)c2n1 [Compound 122, methyl 3-(2,6-dimethylphenyl)-2-methyl-7-pyrrolidinyl-8-hydropyrazolo[1,5-a]pyrimidine-5-carboxylate]
Cc1nn2c(C(C)C)cc(C(=O)O)nc2c1-c1ccccc1Cl [Compound 21, 3-(2-chlorophenyl)-2-methyl-7-(methylethyl)-8-hydropyrazolo[1,5-a]pyrimidine-5-carboxylic acid]
Cc1cccc(C)c1-c1c(C)nn2c(-c3ccncc3)cc(C(=O)O)nc12 [Compound 126, 3-(2,6-dimethylphenyl)-2-methyl-7-(4-pyridyl)-8-hydropyrazolo[1,5-a]pyrimidine-5-carboxylic acid]
Cc1nn2c(C(C)C)cc(C(=O)O)nc2c1-c1c(Cl)cccc1Cl [Compound 115, 3-(2,6-dichlorophenyl)-2-methyl-7-(methylethyl)-8-hydropyrazolo[1,5-a]pyrimidine-5-carboxylic acid]
Cc1cccc(C)c1-c1c(C)nn2c(N(C)c3ccccc3)cc(C(=O)O)nc12 [Compound 149]
